Results on 4 molecules are retold here after PMC3914206.

Common to all, as to assay type: binding
Holding throughout (details): Compound Concentration 10 µM

The target in experiment [1] is T1, panel of 442 kinases (Homo sapiens, UniProt O14920).
T1 construct: purchased KINOMEscan
T1 sequence (O14920 1-756): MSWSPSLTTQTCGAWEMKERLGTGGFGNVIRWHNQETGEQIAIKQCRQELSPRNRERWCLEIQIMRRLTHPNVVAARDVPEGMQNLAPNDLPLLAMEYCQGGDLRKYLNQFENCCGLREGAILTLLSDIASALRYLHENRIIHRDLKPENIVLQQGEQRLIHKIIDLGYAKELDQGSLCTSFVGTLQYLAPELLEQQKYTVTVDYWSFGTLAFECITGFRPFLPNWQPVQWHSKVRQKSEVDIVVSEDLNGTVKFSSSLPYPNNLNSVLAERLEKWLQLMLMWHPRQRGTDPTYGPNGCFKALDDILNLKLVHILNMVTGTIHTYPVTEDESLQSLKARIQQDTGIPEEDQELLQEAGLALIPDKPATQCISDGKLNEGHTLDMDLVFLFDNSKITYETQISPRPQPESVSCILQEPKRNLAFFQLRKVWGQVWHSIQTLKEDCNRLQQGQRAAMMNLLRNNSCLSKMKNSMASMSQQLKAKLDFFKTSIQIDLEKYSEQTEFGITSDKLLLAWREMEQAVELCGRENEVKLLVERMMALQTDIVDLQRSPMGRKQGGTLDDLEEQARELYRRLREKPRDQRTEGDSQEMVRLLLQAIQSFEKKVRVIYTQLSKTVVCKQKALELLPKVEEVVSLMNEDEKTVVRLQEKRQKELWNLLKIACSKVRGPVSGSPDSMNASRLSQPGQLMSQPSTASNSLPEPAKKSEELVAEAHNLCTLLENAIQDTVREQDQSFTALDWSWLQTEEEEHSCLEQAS
The text has this:
(§1) We assessed the selectivity of members of this scaffold using the KINOMEscan methodology across a near comprehensive panel of 442 kinases [[18,27]].

The target in experiment [2] is T2, panel of 442 kinases (Homo sapiens, UniProt O75914).
T2 construct: purchased KINOMEscan
T2 sequence (O75914 whole entry): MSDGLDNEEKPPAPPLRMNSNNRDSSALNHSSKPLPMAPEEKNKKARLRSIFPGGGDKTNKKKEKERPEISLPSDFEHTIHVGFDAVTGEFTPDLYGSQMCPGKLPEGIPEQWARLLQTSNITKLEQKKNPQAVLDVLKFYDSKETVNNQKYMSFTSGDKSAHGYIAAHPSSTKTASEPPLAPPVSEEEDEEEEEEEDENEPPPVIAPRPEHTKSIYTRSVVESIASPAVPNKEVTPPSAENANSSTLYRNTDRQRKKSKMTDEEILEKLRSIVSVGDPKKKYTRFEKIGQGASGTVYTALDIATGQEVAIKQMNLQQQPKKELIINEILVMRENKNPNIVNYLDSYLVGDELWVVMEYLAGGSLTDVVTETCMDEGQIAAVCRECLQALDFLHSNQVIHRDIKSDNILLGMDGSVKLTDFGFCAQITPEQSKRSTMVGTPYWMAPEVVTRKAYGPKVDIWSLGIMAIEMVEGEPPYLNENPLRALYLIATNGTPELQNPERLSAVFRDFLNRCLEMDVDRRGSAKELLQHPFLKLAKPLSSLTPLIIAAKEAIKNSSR
Excerpt: as §1

Experiment [3] addresses T3, panel of 442 kinases (Homo sapiens, UniProt P04626).
T3 construct: purchased KINOMEscan
Excerpt: as §1

T3 sequence (P04626 23-1255): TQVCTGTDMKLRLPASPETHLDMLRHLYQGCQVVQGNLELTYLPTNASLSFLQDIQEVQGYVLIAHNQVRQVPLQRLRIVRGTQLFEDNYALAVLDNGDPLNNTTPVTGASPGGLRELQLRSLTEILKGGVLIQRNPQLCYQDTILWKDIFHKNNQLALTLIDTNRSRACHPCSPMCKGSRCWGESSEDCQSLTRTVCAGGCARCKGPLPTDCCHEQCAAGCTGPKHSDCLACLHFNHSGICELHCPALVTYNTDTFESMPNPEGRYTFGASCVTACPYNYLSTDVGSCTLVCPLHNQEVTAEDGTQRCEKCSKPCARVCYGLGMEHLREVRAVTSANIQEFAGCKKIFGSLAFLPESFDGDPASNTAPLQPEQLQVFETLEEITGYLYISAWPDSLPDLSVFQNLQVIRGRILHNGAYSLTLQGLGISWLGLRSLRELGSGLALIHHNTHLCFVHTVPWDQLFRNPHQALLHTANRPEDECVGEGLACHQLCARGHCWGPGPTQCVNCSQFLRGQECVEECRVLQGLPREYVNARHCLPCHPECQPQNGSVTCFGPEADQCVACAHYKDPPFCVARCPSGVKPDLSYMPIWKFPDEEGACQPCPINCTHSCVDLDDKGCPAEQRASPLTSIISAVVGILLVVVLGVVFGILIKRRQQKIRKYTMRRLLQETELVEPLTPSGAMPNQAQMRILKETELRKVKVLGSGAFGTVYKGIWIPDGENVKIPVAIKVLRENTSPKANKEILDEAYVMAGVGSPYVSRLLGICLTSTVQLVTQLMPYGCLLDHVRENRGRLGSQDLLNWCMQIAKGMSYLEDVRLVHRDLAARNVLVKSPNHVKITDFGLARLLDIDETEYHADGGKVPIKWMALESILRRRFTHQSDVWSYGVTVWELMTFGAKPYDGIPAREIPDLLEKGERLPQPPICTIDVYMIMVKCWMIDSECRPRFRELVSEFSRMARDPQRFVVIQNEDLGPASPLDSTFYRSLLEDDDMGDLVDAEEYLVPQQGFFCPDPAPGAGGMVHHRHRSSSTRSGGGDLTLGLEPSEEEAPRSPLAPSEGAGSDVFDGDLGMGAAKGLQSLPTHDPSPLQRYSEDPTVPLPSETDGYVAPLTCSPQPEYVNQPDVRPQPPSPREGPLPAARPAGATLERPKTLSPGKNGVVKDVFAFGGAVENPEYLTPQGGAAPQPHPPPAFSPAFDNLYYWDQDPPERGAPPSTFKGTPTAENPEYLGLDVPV

`COc1cc(C(=O)N2CCC(N3CCN(C)CC3)CC2)ccc1Nc1ncc2c(n1)N(C)c1ccccc1C(=O)N2C` [15 (LRRK2-IN-1)]: the “KINOMEscan: IKK-beta” value on panel of 442 kinases [1] came to 89. The “KINOMEscan: PAK3” value at panel of 442 kinases [2] is given as 83. In addition, the “KINOMEscan: ERBB2” value at panel of 442 kinases [3] came out at 100.

Regarding `COc1cc(C(=O)N2CCC(N3CCN(C)CC3)CC2)ccc1Nc1ncc2c(n1)N1CCc3cccc(c31)C(=O)N2C` [Compound 24], the “KINOMEscan: PAK3” value at panel of 442 kinases [2] turned out to be 80.

For `COc1cc(C(=O)N2CCC(N3CCN(C)CC3)CC2)ccc1Nc1ncc2c(n1)N(C1CCCC1)c1ccccc1C(=O)N2C` [Compound 25, 11-cyclopentyl-2-((2-methoxy-4-(4-(4-methylpiperazin-1-yl)piperidine-1-carbonyl)phenyl)amino)-5-methyl-5H-benzo[e]pyrimido[5,4-b][1,4]diazepin-6(11H)-one], the “KINOMEscan: IKK-beta” value at panel of 442 kinases [1] is 100. Besides, the “KINOMEscan: PAK3” value on panel of 442 kinases [2] is 69. The “KINOMEscan: ERBB2” value at panel of 442 kinases [3] is 100.

For the molecule `CCOc1cc(C(=O)N2CCC(N3CCN(C)CC3)CC2)ccc1Nc1ncc2c(n1)N(C1CCCC1)c1ccccc1C(=O)N2C` [Compound 26], at panel of 442 kinases [1], the “KINOMEscan: IKK-beta” value is listed as 99. The “KINOMEscan: PAK3” value on panel of 442 kinases [2] was 95. The “KINOMEscan: ERBB2” value at panel of 442 kinases [3] was 100.
